According to US20130029983A1, “AMINOTHIENOPYRIDAZINE INHIBITORS OF TAU ASSEMBLY” (priority 2009, published 2013):
Like-named read-outs stand apart in the source and are kept apart here.

Legend:
[1] = Turbidimetric solubility in fibrillization buffer; format: physicochemical; settings: 100 mM NaOAc pH 7.0 fibrillization buffer, 1% DMSO
Experimental: Compounds were serially diluted in DMSO to achieve a 2.5 fold dilution series from 20 mM down 8 points to […] on a 384-well master plate (Costar 3672). Aliquots (2 μL) were transferred to a clear 96-well assay plate (Fisher 12-565-501) containing 198 μL fibrillization buffer (100 mM NaOAc pH 7.0) for a 100-fold dilution (200 μM down to 0.3 μM). The plate was incubated with agitation for 2.5 h, and the absorbance at 550, 600, 650 and 700 nm was measured on a Spectramax M5 spectrophotometer. DMSO (1%) in fibrillization buffer served as a control that was subtracted from each data point. The absorbances were averaged and the concentration at which the average absorbance rose above 0.03 AU was an indication of insoluble compound, with solubility limits reported as the previous concentration in the dilution series.

[2] = Brain and plasma drug levels 1 h after i.p. administration (LC-MS/MS); format: in vivo; settings: mice; for B/P, ratio between brain/plasma drug level: 1 h after i.p. 5 mg/Kg
Experimental: (§1) Test compounds underwent preliminary evaluations of brain penetration, in which 5 mg/Kg of each compound was administered intraperitoneally (i.p.) to a group of three normal mice; drug levels in brain and plasma were determined at a single time-point (1 h) by LC-MS/MS using pre-validated calibration curves. […] However, both esters appeared to have relatively short half-lives in plasma, as indicated by the limited amount of parent drug detected after 1 h from administration of the compounds. […] CNDR-51362 was selected for full PK analysis in which brain and plasma drug levels were determined at six time points (i.e., 30 min, 1 h, 2 h, 4 h, 8 h, and 16 h). The results from this experiment, illustrated in FIG. 6A, confirmed that the total B/P exposure ratio over 16 h is 1.6. […] Finally, in order to investigate the potential for ATPZ congeners to be orally administered, we evaluated brain and plasma level of CNDR-51362 and CNDR-51349 after oral administration of 5 mg/Kg.
(§2) Brain tissue was homogenized in 10 mM ammonium acetate, pH 5.7 (1:2; w/v) using a handheld sonic homogenizer. Plasma was obtained from blood that was collected into a 1.5 mL tube containing 0.5M EDTA solution and subjected to centrifugation for 10 min. at 4500 g at 4° C. Aliquots (50 μL) of brain homogenate or plasma were mixed with 0.2 mL of acetonitrile, centrifuged at 15,000 g, and the resulting supernatants were used for subsequent LC-MS/MS analysis. The LC-MS/MS system was comprised of an Aquity HPLC and a TQ MS that was controlled using MassLynx software (Waters Corporation, Milford, Mass., USA). Compounds were detected using multiple reaction monitoring (MRM) of their specific collision-induced ion transitions. Samples (5 μL) were separated on an Aquity BEH C18 column (1.7 μm, 2.1×50 mm) at 35° C. Operation was in positive electrospray ionization mode, with mobile phase A of 0.1% (v/v) formic acid, and B of either acetonitrile or methanol with 0.1% (v/v) formic acid at a flow rate of 0.6 mL/min using a gradient from 5% to 95% B over two min., followed by wash and re-equilibration steps. The MS was operated with a desolvation temperature of 450° C. and a source temperature of 150° C. Desolvation and source nitrogen gas flows were 900 L/hr and 50 L/hr, respectively. Source and MS/MS voltages were optimized for each compound using the MassLynx auto tune utility. Standard curves were generated for each compound from brain homogenate and plasma samples that had compound added at 4, 40, 400 and 4000 ng/mL and extracted as above. Peak areas were plotted against concentration and a 1/x weighted linear regression curve was used to quantify the tissue-derived samples using the average peak area from triplicate injections.

[3] = molecular target: T1, K18PL tau (Homo sapiens, UniProt P10636, P618L); test: K18PL tau centrifugation (sedimentation) assay, SDS-PAGE densitometry; format: biochemical; settings: for Emax: SDS-PAGE of soluble and insoluble fractions after centrifugation, read-out: K18PL Sed. Assay, maximal percent inhibition of K18PL fibrillization
T1 construct: (K18PL; amino acids 244-369); made in house
T1 sequence (P10636 561-686 P618L): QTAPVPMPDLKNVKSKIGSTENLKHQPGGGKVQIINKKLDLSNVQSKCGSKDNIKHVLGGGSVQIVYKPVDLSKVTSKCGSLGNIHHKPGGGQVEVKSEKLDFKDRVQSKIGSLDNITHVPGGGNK
How it was run: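 Heparin-induced fibrillization of K18PL tau in sodium acetate buffer with test compound; mixtures were centrifuged and soluble versus insoluble K18PL quantified by SDS-PAGE densitometry. A repeat run centrifuged DMSO- and compound-treated mixtures for 30 min at time zero to remove pelletable material before incubation.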

[4] = Full PK analysis and oral administration, brain and plasma levels; format: in vivo, mice; settings: oral 5 mg/Kg, FIGS. 6B and 6C; 5 mg/kg
Experimental: FIG. 6. (A) Brain and plasma level of F4 (CNDR-51362) after i.v. administration at 2 mg/Kg; (B) Brain and plasma level of F4 (CNDR-51362) after oral administration at 5 mg/Kg; (C) Brain and plasma level of F3 (CNDR-51349) after oral administration at 5 mg/Kg
as §1, §2

[5] = molecular target: T2, full-length tau (tau40) (Homo sapiens, UniProt P10636); test: Tau40 fibrillization sedimentation assay; format: biochemical; settings: SDS-PAGE of soluble and insoluble fractions after centrifugation; for Emax: read-out: Tau40 Sed. Assay, maximal percent inhibition of tau40 fibrillization
T2 construct: Full length tau (Tau40; amino acids 1-441); made in house
T2 sequence (P10636 1-441 isoform P10636-8): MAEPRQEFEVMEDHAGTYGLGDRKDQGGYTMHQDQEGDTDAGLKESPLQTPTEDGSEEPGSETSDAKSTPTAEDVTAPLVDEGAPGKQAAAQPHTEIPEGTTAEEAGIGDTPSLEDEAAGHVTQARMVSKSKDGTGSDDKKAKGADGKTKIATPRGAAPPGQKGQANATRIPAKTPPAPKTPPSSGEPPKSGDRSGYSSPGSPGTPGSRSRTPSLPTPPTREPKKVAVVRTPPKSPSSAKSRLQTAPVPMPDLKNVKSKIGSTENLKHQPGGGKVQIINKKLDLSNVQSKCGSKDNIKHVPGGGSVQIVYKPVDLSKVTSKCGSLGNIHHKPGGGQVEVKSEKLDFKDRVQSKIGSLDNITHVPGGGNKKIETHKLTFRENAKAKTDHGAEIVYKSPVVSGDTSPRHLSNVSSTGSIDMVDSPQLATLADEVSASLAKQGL
Experimental: The determination of compound-induced effects on the amount of tau that remains soluble upon centrifugation, and EM visualization of tau species following incubation with test compounds, were as previously described (Crowe, A., Ballatore, C., Hyde, E., Trojanowski, J. Q., and Lee, V. M. Y. (2007) Biochemical and Biophysical Research Communications 358, 1-6). […]

[6] = molecular target: T1, K18PL tau; test: Heparin-induced K18PL tau fibrillization assay monitored by ThT fluorescence; format: biochemical; settings: for Emax: read-out: K18PL (ThT) maximal percent inhibition achieved in the assay
How it was run: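 K18PL (30 μM stock, with 0.24 μM Alexa Red-labeled K18PL) plus 40 μM heparin and compound, fibrillized 6 h at 37 °C. Fibrils read by ThT (12.5 μM final, in 100 mM glycine pH 8.5, 1 h RT), ex 450/em 510 nm. Percent inhibition scaled between DMSO wells and non-fibrillizing K18 KD control wells.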

[7] = molecular target: T3, Tau40 (Homo sapiens, UniProt P10636); test: SEC of Tau40 fibrillization post-centrifugation supernatants; format: biochemical; settings: tau40 fibril assembly with 5b relative to untreated fibrillization reaction, FIG. 2
T3 construct: Full length tau (Tau40; amino acids 1-441); made in house
T3 sequence (P10636 1-441 isoform P10636-8): as above
Experimental: Tau40 (50 μM) and heparin (20 μM) were incubated in a PCR tube with or without the compound 5b (100 μM) at 37° C. for 5 days in a final volume of 100 μl of […] sodium acetate buffer, pH 7.0. In the absence of compound, tau40 fibrillization is complete under these conditions, as determined by ThT fluorescence and centrifugation assays. A non-assembly control reaction was also prepared as above with Tau40 and 5b in the absence of heparin. The completed reactions were centrifuged at 40,000 g for 30 minutes to sediment fibrils and the supernatants were applied to a Superdex 200 10/300 column (GE Healthcare) employing an Äkta Basic FPLC unit (GE Healthcare) with a flow rate of 0.4 ml/minute. Tau elution was monitored by absorbance at 280 nm. Under these chromatography conditions, monomeric tau can be separated from oligomeric species (Li, W. K. and Lee, V. M. Y. (2006) Biochemistry 45, 15692-15701).

[8] = molecular target: T4, Aβ(1-42) (Homo sapiens, UniProt P05067); test: Aβ(1-42) fibrillization assay (ThT); format: biochemical; settings: Table 3; highest tested concentration (80 μM); read-out: Aβ42 ThT Assay % Inhib.
T4 construct: Synthetic Aβ(1-42) peptide (rPeptide); purchased rPeptide
T4 sequence (P05067 672-713 limits assumed): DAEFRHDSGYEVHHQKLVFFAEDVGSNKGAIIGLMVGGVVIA

[9] = molecular target: T5, K18 tau-mediated tubulin polymerization (Homo sapiens, UniProt P10636); test: Tau-mediated MT assembly assay (K18 tau, tubulin); format: biochemical, bovine (tubulin); settings: 50 μM compound, FIG. 1A
T5 construct: (K18PL; amino acids 244-369)
T5 sequence (P10636 561-686): as the sequence (P10636 561-686 P618L) above, with L58P counted along it
Experimental: The effect of compounds on tau-mediated MT assembly was essentially as described (Hong, M., Zhukareva, V., Vogelsberg-Ragaglia, V., Wszolek, Z., Reed, L., Miller, B. I., Geschwind, D. H., Bird, T. D., McKeel, D., Goate, A., Morris, J. C., Wilhelmsen, K. C., Schellenberg, G. D., Trojanowski, J. Q., and Lee, V. M. Y. (1998) Science 282, 1914-1917), adapted to a 384-well plate. […] Lyophilized bovine brain tubulin (Cytoskeleton Inc.) was reconstituted in RAB (100 mM MES, pH 6.9; 1 mM EDTA; 0.5 mM MgSO4) at a concentration of 10 mg/ml. Compounds (50 μM) were added to K18 tau (40 μM) in RAB and pre-incubated at room temperature for 60 minutes. To initiate the MT assembly reaction, 8.25 μl per well of 10 mg/ml tubulin was dispensed on a UV-clear 384-well plate (Corning #3675), followed by 1.0 μl of 100 mM GTP in RAB and 41.25 μl of the compound:tau mixture. […] The plate was incubated in a Spectramax M5 plate reader at 37° C. and the absorbance at 340 nm was read every minute for 45 minutes.

[10] = Table 5, read-out: K18PL (ThT) IC50 value

SMILES	Water Solubility [1] [µM]	B/P, ratio between brain/plasma drug level [2]	Brain level ([2]; 1 h after i.p. 5 mg/kg, listed as CNDK-51349, 5 mg/kg) [ng/g]	Emax [3] [%]	Brain concentration after oral administration [4]	Tau40 Sed. Assay, maximal percent inhibition of tau40 fibrillization [5] [%]	Emax [5] [%]	IC50 [6, 10] [µM]	Emax ([6]; Table 5) [%]	Monomeric tau in post-centrifugation supernatant (SEC) [7]	Tau Cent. Assay % Soluble ([3]; Table 3, K18PL tau centrifugation assay) [%]	inhibition at 80 µM [8] [%]	inhibition at 80 µM ([6]; Table 3, highest tested concentration (80 μM), read-out: Tau ThT Assay % Inhib.) [%]	IC50 ([6]; Table 3, logarithm of IC50, K18PL tau ThT fluorescence inhibition, NC = not calculated due to insufficient activity, read-out: Tau ThT Assay Log IC50 (converted)) [µM]	Effect on tau-mediated tubulin polymerization (MT formation) [9]
CC(C)NC(=O)c1nn(-c2ccc(Cl)cc2)c(=O)c2c(N)scc12 [CNDR-51349, 5-Amino-3-(4-chlorophenyl)-N-isopropyl-4-oxo-3,4-dihydrothieno[3,4-d]pyridazine-1-carboxamide]	32	2.2	1100	65	significant brain concentrations	45	50 to 60	0.7	88						
CCN(C)C(=O)c1nn(-c2ccc(Cl)cc2)c(=O)c2c(N)scc12 [CNDR-51366, 5-Amino-3-(4-chlorophenyl)-N-ethyl-N-methyl-4-oxo-3,4-dihydrothieno[3,4-d]pyridazine-1-carboxamide]	80	0.89		62		58	50 to 60	6.8	91						
CNC(=O)c1nn(-c2ccc(Cl)cc2)c(=O)c2c(N)scc12 [CNDR-51367, 5-Amino-3-(4-chlorophenyl)-N-methyl-4-oxo-3,4-dihydrothieno[3,4-d]pyridazine-1-carboxamide]	13	0.49		68		51	50 to 60	4.3	91						
CC(C)NC(=O)c1nn(-c2ccc(Br)cc2)c(=O)c2c(N)scc12 [CNDR-51390, 5-Amino-3-(4-bromophenyl)-N-isopropyl-4-oxo-3,4-dihydrothieno[3,4-d]pyridazine-1-carboxamide]	13	2.0		58		55	50 to 60	2.2	89						
CCOC(=O)c1nn(-c2ccc(OC)cc2)c(=O)c2c(N)scc12 [Compound 5b]										appreciable increase in the amount of monomeric tau	64	28	86	5.01	
CN(C)c1ccc2nc3ccc(=[N+](C)C)cc-3sc2c1 [methylene blue]															significant diminution
